Test results from PMC3382171 (PLoS ONE, 2012).

Legend:
Test in all cases: biochemical
Details in all cases: read-out: Dundee KSS % inhibition at 1uM
[1] = molecular target: NEK6 (Homo sapiens, UniProt Q9HC98)
Method: (§1) The METi and RAFi were screened against kinase panels (SelectScreen, Invitrogen; University of Dundee, Division of Signal Transduction Therapy, UK; Upstate Biotechnology/Millipore, Billerica, MA). In these selectivity assays the concentration of ATP was set to the Km value of ATP for each kinase tested to allow for a relative potency comparison between the various kinases. The compounds were tested at 1 µM final concentration. […] (A) Kinase selectivity screen (KSS) performed at Upstate Biotechnology. […] (B) KSS performed at University of Dundee (Division of Signal Transduction Therapy). […] (PDF) Click here for additional data file.

[2] = molecular target: T1, deltaPH-PKBbeta (Homo sapiens, UniProt P31751)
T1 construct: gene AKT2; delta PH
Method: as §1

[3] = molecular target: T2, NEK2a (Homo sapiens, UniProt P51955)
T2 construct: gene NEK2; isoform A
T2 sequence (P51955 whole entry, canonical isoform): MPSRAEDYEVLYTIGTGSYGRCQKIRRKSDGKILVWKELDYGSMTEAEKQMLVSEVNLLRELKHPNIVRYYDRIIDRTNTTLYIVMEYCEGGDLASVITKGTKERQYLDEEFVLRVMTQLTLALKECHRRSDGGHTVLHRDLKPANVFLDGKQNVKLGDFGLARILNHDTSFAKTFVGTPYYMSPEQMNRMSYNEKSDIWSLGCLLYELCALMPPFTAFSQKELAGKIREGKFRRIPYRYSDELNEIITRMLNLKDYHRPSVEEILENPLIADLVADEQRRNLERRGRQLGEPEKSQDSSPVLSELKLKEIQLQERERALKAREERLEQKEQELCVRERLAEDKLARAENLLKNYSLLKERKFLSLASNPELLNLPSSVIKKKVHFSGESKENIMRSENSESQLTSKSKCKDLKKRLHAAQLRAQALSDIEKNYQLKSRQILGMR
Method: as §1

[4] = molecular target: T3, SAPK2A/p38 (Homo sapiens, UniProt Q16539)
T3 construct: gene MAPK14
T3 sequence (Q16539 whole entry): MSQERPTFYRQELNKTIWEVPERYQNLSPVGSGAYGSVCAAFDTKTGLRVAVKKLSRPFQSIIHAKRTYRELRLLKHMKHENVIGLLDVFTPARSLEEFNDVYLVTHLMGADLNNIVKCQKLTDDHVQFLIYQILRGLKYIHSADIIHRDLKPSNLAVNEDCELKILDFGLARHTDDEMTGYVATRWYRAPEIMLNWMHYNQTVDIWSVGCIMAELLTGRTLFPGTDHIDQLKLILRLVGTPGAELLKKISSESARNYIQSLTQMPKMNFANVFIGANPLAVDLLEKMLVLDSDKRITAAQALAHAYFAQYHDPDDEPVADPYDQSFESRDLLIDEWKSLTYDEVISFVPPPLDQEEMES
Method: as §1

[5] = molecular target: T4, CAMK-1 (Homo sapiens, UniProt Q14012)
T4 construct: gene CAMK1
Method: as §1

[6] = molecular target: T5, EF2K (Homo sapiens, UniProt O00418)
T5 construct: gene EEF2K
Method: as §1

[7] = molecular target: T6, MNK1 (Homo sapiens, UniProt Q9BUB5)
T6 construct: gene MKNK1
Method: as §1

[8] = molecular target: mouse LCK (Mus musculus, UniProt P06240)
Chain of mouse LCK (P06240 whole entry): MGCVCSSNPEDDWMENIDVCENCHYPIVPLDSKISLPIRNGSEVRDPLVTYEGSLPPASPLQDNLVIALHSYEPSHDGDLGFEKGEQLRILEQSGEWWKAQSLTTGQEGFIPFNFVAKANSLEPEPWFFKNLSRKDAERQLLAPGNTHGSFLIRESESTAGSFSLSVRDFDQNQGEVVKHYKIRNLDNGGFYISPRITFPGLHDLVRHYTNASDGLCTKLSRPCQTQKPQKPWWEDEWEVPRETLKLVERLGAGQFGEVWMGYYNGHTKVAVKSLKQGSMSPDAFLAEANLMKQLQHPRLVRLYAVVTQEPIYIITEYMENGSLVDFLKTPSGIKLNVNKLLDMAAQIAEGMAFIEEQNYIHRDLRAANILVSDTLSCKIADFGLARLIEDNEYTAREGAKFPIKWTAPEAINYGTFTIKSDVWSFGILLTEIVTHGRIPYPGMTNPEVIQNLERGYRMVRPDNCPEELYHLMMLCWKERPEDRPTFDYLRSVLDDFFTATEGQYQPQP
Method: as §1

[9] = molecular target: DYRK3 (Homo sapiens, UniProt O43781)
Chain of DYRK3 (O43781 whole entry): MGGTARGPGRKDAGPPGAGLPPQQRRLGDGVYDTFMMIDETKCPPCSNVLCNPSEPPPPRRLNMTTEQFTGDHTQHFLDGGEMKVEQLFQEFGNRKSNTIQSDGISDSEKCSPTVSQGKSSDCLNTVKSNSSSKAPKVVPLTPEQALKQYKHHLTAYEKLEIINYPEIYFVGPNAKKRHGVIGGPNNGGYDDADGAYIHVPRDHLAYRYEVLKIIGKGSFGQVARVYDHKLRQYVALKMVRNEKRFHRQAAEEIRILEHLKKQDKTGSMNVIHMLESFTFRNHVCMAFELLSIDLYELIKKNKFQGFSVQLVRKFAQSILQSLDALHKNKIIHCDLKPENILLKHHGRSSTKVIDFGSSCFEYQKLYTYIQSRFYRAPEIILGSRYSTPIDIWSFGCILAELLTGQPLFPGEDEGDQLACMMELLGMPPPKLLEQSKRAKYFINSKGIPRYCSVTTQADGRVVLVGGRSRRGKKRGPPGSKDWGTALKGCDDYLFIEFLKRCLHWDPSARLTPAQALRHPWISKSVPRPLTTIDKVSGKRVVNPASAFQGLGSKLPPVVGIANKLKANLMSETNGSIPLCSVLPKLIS
Method: as §1

[10] = molecular target: T7, SAPK4/p38d (Homo sapiens, UniProt O15264)
T7 construct: gene MAPK13
T7 sequence (O15264 whole entry): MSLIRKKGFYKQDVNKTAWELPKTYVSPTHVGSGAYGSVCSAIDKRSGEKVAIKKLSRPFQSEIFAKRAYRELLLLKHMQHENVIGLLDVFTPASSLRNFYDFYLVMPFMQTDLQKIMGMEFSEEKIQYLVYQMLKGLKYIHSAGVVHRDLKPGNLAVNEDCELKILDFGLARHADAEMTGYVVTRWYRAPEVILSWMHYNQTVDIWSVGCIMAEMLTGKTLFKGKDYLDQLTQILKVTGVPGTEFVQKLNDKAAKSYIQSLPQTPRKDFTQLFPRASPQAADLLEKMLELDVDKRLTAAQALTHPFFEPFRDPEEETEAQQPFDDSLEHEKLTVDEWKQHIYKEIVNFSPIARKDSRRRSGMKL
Method: as §1

[11] = molecular target: T8, MLCK (Homo sapiens, UniProt Q15746)
T8 construct: gene MYLK
Method: as §1

[12] = molecular target: T9, MAPKAP-K1a (Homo sapiens, UniProt Q15418)
T9 construct: gene RPS6KA1
Method: as §1

[13] = molecular target: T10, P70S6K (Homo sapiens, UniProt P23443)
T10 construct: gene RPS6KB1
Method: as §1

[14] = molecular target: T11, ERK8 (Homo sapiens, UniProt Q8TD08)
T11 construct: gene MAPK15
Method: as §1

[15] = molecular target: T12, DYRK2 (Homo sapiens, UniProt Q92630)
T12 sequence (Q92630 1-601): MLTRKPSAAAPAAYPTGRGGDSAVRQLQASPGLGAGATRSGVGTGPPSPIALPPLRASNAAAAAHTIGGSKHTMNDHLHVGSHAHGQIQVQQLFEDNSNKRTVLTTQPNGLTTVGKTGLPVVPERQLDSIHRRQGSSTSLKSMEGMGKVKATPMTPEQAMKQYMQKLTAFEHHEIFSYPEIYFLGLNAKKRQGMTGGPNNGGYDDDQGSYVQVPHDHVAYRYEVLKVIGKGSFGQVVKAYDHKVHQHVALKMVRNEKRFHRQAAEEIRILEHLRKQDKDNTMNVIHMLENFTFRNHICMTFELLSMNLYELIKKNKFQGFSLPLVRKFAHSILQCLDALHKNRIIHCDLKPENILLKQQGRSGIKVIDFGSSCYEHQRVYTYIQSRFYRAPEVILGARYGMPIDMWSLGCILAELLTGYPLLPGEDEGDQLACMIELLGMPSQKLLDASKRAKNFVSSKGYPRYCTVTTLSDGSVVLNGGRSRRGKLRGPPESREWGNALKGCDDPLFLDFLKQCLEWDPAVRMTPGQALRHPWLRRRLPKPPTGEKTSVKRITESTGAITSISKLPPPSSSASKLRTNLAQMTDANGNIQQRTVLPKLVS
Method: as §1

[16] = molecular target: T13, AuroraC (Homo sapiens, UniProt Q9UQB9)
T13 construct: gene AURKC
T13 sequence (Q9UQB9 whole entry): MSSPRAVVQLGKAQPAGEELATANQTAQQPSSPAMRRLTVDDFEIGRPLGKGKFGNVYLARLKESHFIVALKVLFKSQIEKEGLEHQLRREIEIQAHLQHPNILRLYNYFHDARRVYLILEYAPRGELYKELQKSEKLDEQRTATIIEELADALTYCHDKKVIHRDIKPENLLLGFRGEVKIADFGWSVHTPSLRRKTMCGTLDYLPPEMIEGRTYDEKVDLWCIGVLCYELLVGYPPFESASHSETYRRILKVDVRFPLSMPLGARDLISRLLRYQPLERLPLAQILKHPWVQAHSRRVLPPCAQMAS
Method: as §1

[17] = molecular target: T14, PRK2 (Homo sapiens, UniProt Q16513)
T14 construct: gene PKN2
Method: as §1

[18] = molecular target: T15, JNK2 (Homo sapiens, UniProt P45984)
T15 construct: gene MAPK9
T15 sequence (P45984 whole entry): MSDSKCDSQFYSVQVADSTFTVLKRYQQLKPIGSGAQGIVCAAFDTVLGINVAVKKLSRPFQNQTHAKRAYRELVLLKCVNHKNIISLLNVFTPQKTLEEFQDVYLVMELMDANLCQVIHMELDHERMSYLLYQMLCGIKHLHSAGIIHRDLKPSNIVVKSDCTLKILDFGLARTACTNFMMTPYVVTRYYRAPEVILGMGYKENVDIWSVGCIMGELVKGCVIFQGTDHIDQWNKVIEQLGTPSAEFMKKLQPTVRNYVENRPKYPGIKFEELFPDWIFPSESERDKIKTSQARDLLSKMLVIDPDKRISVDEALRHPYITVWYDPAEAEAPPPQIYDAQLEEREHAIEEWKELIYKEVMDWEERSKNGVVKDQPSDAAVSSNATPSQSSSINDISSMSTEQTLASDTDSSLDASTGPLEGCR
Method: as §1

[19] = molecular target: NEK7 (Homo sapiens, UniProt Q8TDX7)
Chain of NEK7 (Q8TDX7 whole entry): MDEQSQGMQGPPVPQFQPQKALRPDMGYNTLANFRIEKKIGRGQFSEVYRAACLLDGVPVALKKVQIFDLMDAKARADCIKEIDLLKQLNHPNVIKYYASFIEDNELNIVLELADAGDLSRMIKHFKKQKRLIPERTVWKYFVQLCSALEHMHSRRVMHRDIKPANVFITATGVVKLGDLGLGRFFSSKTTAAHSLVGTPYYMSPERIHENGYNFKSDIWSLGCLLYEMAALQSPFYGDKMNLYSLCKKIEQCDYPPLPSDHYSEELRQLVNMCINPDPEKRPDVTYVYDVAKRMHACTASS
Method: as §1

[20] = molecular target: T16, PKD1 (Homo sapiens, UniProt Q15139)
T16 construct: gene PRKD1
T16 sequence (Q15139 whole entry): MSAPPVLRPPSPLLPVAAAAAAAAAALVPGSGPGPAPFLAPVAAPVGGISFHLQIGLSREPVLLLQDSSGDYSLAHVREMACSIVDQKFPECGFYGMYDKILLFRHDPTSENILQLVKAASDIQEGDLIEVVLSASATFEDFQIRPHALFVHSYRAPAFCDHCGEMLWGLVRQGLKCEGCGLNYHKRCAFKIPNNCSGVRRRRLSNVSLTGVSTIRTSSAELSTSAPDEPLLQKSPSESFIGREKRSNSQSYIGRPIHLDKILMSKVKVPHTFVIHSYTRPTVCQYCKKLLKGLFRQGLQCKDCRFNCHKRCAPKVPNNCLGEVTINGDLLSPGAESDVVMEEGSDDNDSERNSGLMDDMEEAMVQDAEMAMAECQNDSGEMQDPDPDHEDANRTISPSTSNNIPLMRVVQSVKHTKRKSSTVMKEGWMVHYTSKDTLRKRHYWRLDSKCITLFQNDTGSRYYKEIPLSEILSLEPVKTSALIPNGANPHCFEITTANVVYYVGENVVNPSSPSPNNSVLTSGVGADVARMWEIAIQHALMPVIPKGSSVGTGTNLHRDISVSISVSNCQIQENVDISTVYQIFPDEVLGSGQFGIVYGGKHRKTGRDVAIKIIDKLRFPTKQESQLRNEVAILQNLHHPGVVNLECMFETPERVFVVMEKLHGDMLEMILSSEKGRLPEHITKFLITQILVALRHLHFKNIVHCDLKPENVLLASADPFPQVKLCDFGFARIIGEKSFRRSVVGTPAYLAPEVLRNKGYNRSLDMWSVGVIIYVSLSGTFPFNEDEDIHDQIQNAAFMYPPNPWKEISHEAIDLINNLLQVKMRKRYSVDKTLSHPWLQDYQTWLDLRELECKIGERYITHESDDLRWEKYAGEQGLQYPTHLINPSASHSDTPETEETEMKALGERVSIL
Method: as §1

[21] = molecular target: T17, MKK1 (Homo sapiens, UniProt Q02750)
T17 construct: gene MAP2K1
T17 sequence (Q02750 whole entry): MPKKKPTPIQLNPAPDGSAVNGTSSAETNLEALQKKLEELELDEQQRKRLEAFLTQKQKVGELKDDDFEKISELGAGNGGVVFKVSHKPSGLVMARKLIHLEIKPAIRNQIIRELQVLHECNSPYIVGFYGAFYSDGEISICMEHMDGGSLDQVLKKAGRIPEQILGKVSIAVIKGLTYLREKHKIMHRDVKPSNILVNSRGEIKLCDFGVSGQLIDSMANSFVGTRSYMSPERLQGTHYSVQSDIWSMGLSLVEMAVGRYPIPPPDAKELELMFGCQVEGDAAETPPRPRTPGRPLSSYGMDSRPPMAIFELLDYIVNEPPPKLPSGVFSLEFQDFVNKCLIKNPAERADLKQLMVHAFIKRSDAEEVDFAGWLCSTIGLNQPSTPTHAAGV
Method: as §1

[22] = molecular target: T18, MST2 (Homo sapiens, UniProt Q13188)
T18 construct: gene STK3
Method: as §1

[23] = molecular target: PIM3 (Homo sapiens, UniProt Q86V86)
Method: as §1

[24] = molecular target: CDK2/CyclinA (Homo sapiens, UniProt P24941)
Method: as §1

[25] = molecular target: T19, CAMKKa (Homo sapiens, UniProt Q8N5S9)
T19 construct: gene CAMKK1
Method: as §1

[26] = molecular target: T20, deltaPH-PKBalpha (Homo sapiens, UniProt P31749)
T20 construct: gene AKT1; delta PH
Method: as §1

Chain of NEK6 (Q9HC98 whole entry): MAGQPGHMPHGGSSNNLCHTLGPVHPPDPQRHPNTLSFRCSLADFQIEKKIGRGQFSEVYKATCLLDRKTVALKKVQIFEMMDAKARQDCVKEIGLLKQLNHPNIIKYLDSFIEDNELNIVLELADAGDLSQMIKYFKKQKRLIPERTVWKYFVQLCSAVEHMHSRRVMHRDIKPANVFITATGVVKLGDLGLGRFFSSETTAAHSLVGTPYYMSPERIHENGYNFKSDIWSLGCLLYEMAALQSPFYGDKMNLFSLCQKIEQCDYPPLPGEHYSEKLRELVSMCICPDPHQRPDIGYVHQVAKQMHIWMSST

inhibition at 1 µM [1]: 8.99%
inhibition at 1 µM [2]: 8.16%
inhibition at 1 µM [3]: -7.91%
inhibition at 1 µM [4]: 2.86%
inhibition at 1 µM [5]: 12.8%
inhibition at 1 µM [6]: -13.1%
inhibition at 1 µM [7]: -8.48%
inhibition at 1 µM [8]: 15.7%
inhibition at 1 µM [9]: -18.2%
inhibition at 1 µM [10]: 4.67%
inhibition at 1 µM [11]: 9.24%
inhibition at 1 µM [12]: 3.34%
inhibition at 1 µM [13]: -0.67%
inhibition at 1 µM [15]: 14.8%
inhibition at 1 µM [16]: 6.48%
inhibition at 1 µM [17]: 11.7%
inhibition at 1 µM [18]: 14.9%
inhibition at 1 µM [19]: -7.5%
inhibition at 1 µM [20]: 6.21%
inhibition at 1 µM [21]: 25.2%
inhibition at 1 µM [22]: 6.16%
inhibition at 1 µM [23]: 10.7%
inhibition at 1 µM [24]: 2.24%
inhibition at 1 µM [25]: 8.9%
inhibition at 1 µM [26]: 3.5%
Structure (SMILES): OCCn1cc(-c2cnc3nnn(Cc4ccc5ncccc5c4)c3n2)cn1 [METi, PF-04217903]
inhibition at 1 µM [14]: 14.8%
